Results published in ChEMBL document CHEMBL4765288, “Synthesis of novel monocarbonyl curcuminoids, evaluation of their efficacy against MRSA, including ex vivo infection model and their mechanistic studies” (Eur J Med Chem, 2020).
≈ marks a conversion by molar mass, not a printed value. Calls of active or inactive are those of the source. No cut-off for these calls is given here. Positions of bridges follow the written chain, without caps; N, C: chain ends. Non-standard residues stand in square brackets, D forms with d. Residues, ends and D or L forms follow the SMILES beside them. *: point of attachment. X1 = CC[C@H](C)CCCCC(=O)*; Dab = NCC[C@H](N)C(=O)O

What was measured:
Escherichia coli [1] = assay: Antibacterial activity against Escherichia coli ATCC 25922 after 16 to 18 hrs by CLSI-based microbroth dilution method; assay type: functional; details: time 16-18 hrs
Escherichia coli [2] = assay: Antibacterial activity against Escherichia coli ATCC 11775 after 16 to 18 hrs by CLSI-based microbroth dilution method; assay type: functional; details: time 16-18 hrs
Escherichia coli [3] = assay: Antibacterial activity against Escherichia coli E-52 after 16 to 18 hrs by CLSI-based microbroth dilution method; assay type: functional; details: time 16-18 hrs
Escherichia coli [4] = assay: Antibacterial activity against Escherichia coli E-59 after 16 to 18 hrs by CLSI-based microbroth dilution method; assay type: functional; details: time 16-18 hrs
Escherichia coli [5] = assay: Antibacterial activity against Escherichia coli E-74 after 16 to 18 hrs by CLSI-based microbroth dilution method; assay type: functional; details: time 16-18 hrs
Staphylococcus aureus [6] = assay: Antibacterial activity against methicillin susceptible Staphylococcus aureus ATCC 29213 after 16 to 18 hrs by CLSI-based microbroth dilution method; assay type: functional; details: time 16-18 hrs
Staphylococcus aureus [7] = assay: Antibacterial activity against methicillin resistant Staphylococcus aureus ATCC 33591 after 16 to 18 hrs by CLSI-based microbroth dilution method; assay type: functional; details: time 16-18 hrs
Staphylococcus aureus [8] = assay: Antibacterial activity against methicillin resistant Staphylococcus aureus ATCC S-28 after 16 to 18 hrs by CLSI-based microbroth dilution method; assay type: functional; details: time 16-18 hrs
Staphylococcus aureus [9] = assay: Antibacterial activity against methicillin resistant Staphylococcus aureus S-30 after 16 to 18 hrs by CLSI-based microbroth dilution method; assay type: functional; details: time 16-18 hrs
Staphylococcus aureus [10] = assay: Antibacterial activity against methicillin resistant Staphylococcus aureus S-33 after 16 to 18 hrs by CLSI-based microbroth dilution method; assay type: functional; details: time 16-18 hrs
Staphylococcus aureus [11] = assay: Antibacterial activity against methicillin resistant Staphylococcus aureus S-34 after 16 to 18 hrs by CLSI-based microbroth dilution method; assay type: functional; details: time 16-18 hrs
Staphylococcus aureus [12] = assay: Antibacterial activity against methicillin resistant Staphylococcus aureus S-37 after 16 to 18 hrs by CLSI-based microbroth dilution method; assay type: functional; details: time 16-18 hrs
Staphylococcus aureus [13] = assay: Antibacterial activity against methicillin resistant Staphylococcus aureus S-41 after 16 to 18 hrs by CLSI-based microbroth dilution method; assay type: functional; details: time 16-18 hrs
[14] = Hemolytic activity in mouse RBC at 75 ug/ml after 1 hr by microplate reader analysis relative to control; assay type: ADME, cell-based, Erythrocyte; details: mouse red blood cells (erythrocytes), at 75 µg/mL, read-out: Activity
[15] = Hemolytic activity in mouse RBC at 150 ug/ml after 1 hr by microplate reader analysis relative to control; assay type: ADME, cell-based, Erythrocyte; details: mouse red blood cells (erythrocytes), at 150 µg/mL, read-out: Activity
[16] = Cytotoxicity against mouse 3T3 cells assessed as reduction in cell viability at 75 ug/ml after 4 hrs by MTT assay (reference value: 90.42 +/- 0.03%); assay type: cell-based; details: 3t3, 4 h, at 75 µg/mL
[17] = Cytotoxicity against mouse 3T3 cells assessed as reduction in cell viability at 150 ug/ml after 4 hrs by MTT assay (reference value: 90.42 +/- 0.03%); assay type: cell-based; details: at 150 µg/mL, read-out: Activity
Cell membrane [18] = assay: Induction of cytoplasmic membrane depolarization in methicillin resistant Staphylococcus aureus ATCC 33591 at 5 times MIC by [DiSC3(5)] probe based fluorescence assay relative to control; assay type: subcellular; details: time 2.0 hrs
Cell membrane [19] = assay: Induction of cytoplasmic membrane permeabilization in Staphylococcus aureus ATCC 33591 at 5 times MIC measured after 2 min using calcein-AM as substrate by dye based fluorescence assay relative to control; assay type: subcellular
Cell membrane [20] = assay: Induction of cell membrane damage in Staphylococcus aureus ATCC 33591 at 5 times MIC assessed as loss of cell viability measured after 2 hrs by confocal microscopy
Cell membrane [21] = assay: Induction of cell membrane damage in Staphylococcus aureus ATCC 33591 assessed as membrane surface perturbation with multiple dent and bleb formation at 5 times MIC after 4 hrs by scanning electron microscopy; assay type: subcellular
Cell membrane [22] = assay: Induction of cytoplasmic membrane permeabilization in Staphylococcus aureus ATCC 33591 at 5 times MIC measured after 120 min using calcein-AM as substrate by dye based fluorescence assay relative to control; assay type: subcellular
Staphylococcus aureus [23] = assay: Antibacterial activity against methicillin susceptible Staphylococcus aureus ATCC 29213 infected in mouse 3T3 cells assessed as bacterial load at 5 times MIC after 16 hrs (reference value: 6.6 log CFU/ml); assay type: functional

| SMILES | MIC (Escherichia coli [1]) | MIC (Escherichia coli [2]) | MIC (Escherichia coli [3]) | MIC (Escherichia coli [4]) | MIC (Escherichia coli [5]) | MIC (Staphylococcus aureus [6]) | MIC (Staphylococcus aureus [7]) | MIC (Staphylococcus aureus [8]) | MIC (Staphylococcus aureus [9]) | MIC (Staphylococcus aureus [10]) | MIC (Staphylococcus aureus [11]) | MIC (Staphylococcus aureus [12]) | MIC (Staphylococcus aureus [13]) | further results |
| --- | --- | --- | --- | --- | --- | --- | --- | --- | --- | --- | --- | --- | --- | --- |
| CC[C@H](C)CCCCC(=O)N[C@@H](CCN)C(=O)N[C@H](C(=O)N[C@@H](CCN)C(=O)N[C@H]1CCNC(=O)[C@H]([C@@H](C)O)NC(=O)[C@H](CCN)NC(=O)[C@H](CCN)NC(=O)[C@H](CC(C)C)NC(=O)[C@@H](Cc2ccccc2)NC(=O)[C@H](CCN)NC1=O)[C@@H](C)O (X1-[Dab]T[Dab][Dab][Dab][dF]L[Dab][Dab]T; lactam 4-C) | 0.5 µg/mL (≈ 0.415 µM) | 0.5 µg/mL (≈ 0.415 µM) | 1 µg/mL (≈ 0.831 µM) | 1 µg/mL (≈ 0.831 µM) | 1 µg/mL (≈ 0.831 µM) |  |  |  |  |  |  |  |  |  |
| Cc1onc(-c2ccccc2)c1C(=O)N[C@@H]1C(=O)N2[C@@H]1SC(C)(C)[C@@H]2C(=O)O [OXACILLIN] |  |  |  |  |  | 0.5 µg/mL (≈ 1.25 µM) | 64 µg/mL (≈ 159 µM) | 128 µg/mL (≈ 319 µM) | 128 µg/mL (≈ 319 µM) | 128 µg/mL (≈ 319 µM) | 128 µg/mL (≈ 319 µM) | 128 µg/mL (≈ 319 µM) | 128 µg/mL (≈ 319 µM) |  |
| COc1cc(/C=C2\CC/C(=C\c3ccc(OCCCCN4CCCCCC4)c(OC)c3)C2=O)ccc1OCCCCN1CCCCCC1.Cl.Cl | 16 µg/mL | 16 µg/mL | 32 µg/mL | 32 µg/mL | 32 µg/mL | 2 µg/mL | 4 µg/mL | 8 µg/mL | 8 µg/mL | 8 µg/mL | 16 µg/mL | 16 µg/mL | 8 µg/mL | hemolysis at 1 h, 75 ug/ml [14]: 6.19%; hemolysis at 1 h, 150 ug/ml [15]: 9.32%; Activity [16]: 7.03%; viability at 4 h, 150 ug/ml [17]: 14.8%; Activity (Cell membrane [18]): 90.7%; Activity (Cell membrane [19]): 69.7%; Activity (Cell membrane [20]): Active; Activity (Cell membrane [21]): Active; Activity (Cell membrane [22]): 89%; Activity (Staphylococcus aureus [23]): 3.23 log10CFU/ml |
| CN[C@H](CC(C)C)C(=O)N[C@H]1C(=O)N[C@@H](CC(N)=O)C(=O)N[C@H]2C(=O)N[C@H]3C(=O)N[C@H](C(=O)N[C@H](C(=O)O)c4cc(O)cc(O)c4-c4cc3ccc4O)[C@H](O)c3ccc(c(Cl)c3)Oc3cc2cc(c3O[C@@H]2O[C@H](CO)[C@@H](O)[C@H](O)[C@H]2O[C@H]2C[C@](C)(N)[C@H](O)[C@H](C)O2)Oc2ccc(cc2Cl)[C@H]1O [VANCOMYCIN] | 64 µg/mL (≈ 44.2 µM) | 64 µg/mL (≈ 44.2 µM) | 128 µg/mL (≈ 88.3 µM) | 128 µg/mL (≈ 88.3 µM) | 128 µg/mL (≈ 88.3 µM) |  |  |  |  |  |  |  |  |  |
